From patent publication US20210238162A1, “CHEMICAL COMPOUNDS” (GlaxoSmithKline Intellectual Property Development Limited, priority 2015, published 2021)
Where a name gives a salt, the structure may show the parent alone.

The compounds below were run against T1, haematopoietic prostaglandin D synthase (H-PGDS) (Homo sapiens, UniProt O60760) (assay: H-PGDS RapidFire High Throughput Mass Spectrometry Assay). Settings: H-PGDS RapidFire MS assay, mean pIC50; read-out: Potency Range (mean pIC50) (converted).
T1 construct: Full length human H-PGDS cDNA (Invitrogen Ultimate ORF IOH13026) was amplified by PCR; made in house; host or cells: E. coli BL21 (DE3*), vector pET22b+
T1 sequence (O60760 whole entry): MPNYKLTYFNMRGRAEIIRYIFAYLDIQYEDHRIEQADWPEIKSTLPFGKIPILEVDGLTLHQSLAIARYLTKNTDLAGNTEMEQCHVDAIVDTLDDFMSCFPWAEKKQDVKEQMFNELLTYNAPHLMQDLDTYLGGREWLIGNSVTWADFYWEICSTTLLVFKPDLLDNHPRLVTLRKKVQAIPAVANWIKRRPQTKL
Type: biochemical
Procedure: The H-PGDS RapidFire™ mass spectrometric assay monitors conversion of prostaglandin H2 (PGH2) to prostaglandin D2 (PGD2) by haematopoietic prostaglandin D synthase (H-PGDS). In the assay format described here, the substrate (PGH2) is formed in situ by the action of cyclooxygenase-2 on arachidonic acid. This first step is set up to be fast, and generates a burst of PGH2 at ˜10 μM. The PGH2 is then further converted to PGD2 by the H-PGDS enzyme. […] Plates are then read on the RapidFire™ high throughput solid phase extraction system (Agilent) which incorporates a solid phase extraction step coupled to a triple quadrupole mass spectrometer (AB SCIEX). Relative levels of PGD2 and PGF2α, which acts as a surrogate for substrate, are measured and a percent conversion calculated.
Full length human H-PGDS cDNA (Invitrogen Ultimate ORF IOH13026) was amplified by PCR with the addition of a 5′ 6-His tag and TEV protease cleavage site. The PCR product was digested with Ndel and Xhol and ligated into pET22b+ (Merck Novagen®). Expression was carried out in E. coli strain BL21 (DE3*) using auto-induction Overnight Express™ Instant TB medium (Merck Novagen®) supplemented with 1% glycerol. The culture was first grown at 37° C. and the temperature was reduced to 25° C. when OD600 reached 2.0. Cells were harvested by centrifugation after a further 18 hr. 10 g of E. coli cell pellet was suspended to a total volume of 80 mL in lysis buffer (20 mM Tris-Cl pH 7.5, 300 mM NaCl, 20 mM imidazole, 5 mM β-mercaptoethanol, 10% glycerol). 1 mg/mL protease inhibitors (Protease Inhibitor Cocktail Set Ill, Merck Calbiochem®) and 1 mg/mL lysozyme were added to the cell suspension. The suspension was then sonicated for 5 min (UltraSonic Processor VCX 750, Cole-Parmer Instrument Co.) with a micro probe (50% amplitude, 10 sec on/off) and then centrifuged at 100,000 g for 90 min (at 4° C.). The supernatant was loaded onto a Ni-NTA HiTrap column (5 mL, GE Heathcare, pre-equilibrated in lysis buffer). The column was washed with 10 column volumes of lysis buffer and eluted with lysis buffer containing 500 mM imidazole. The pooled protein peak fractions were concentrated using a 10 kDa centrifugal filter at 3500 g and 4° C. (Amicon Ultra-15 centrifugal filter unit with Ultracel-10 membrane from Millipore). Further purification of the concentrated protein was carried out using gel filtration chromatography on a HiLoad 26/600 Superdex 75 preparative grade column (GE Healthcare Life Sciences) using 50 mM Tris pH 7.5, 50 mM NaCl, 1 mM dithiothreitol, 1 mM MgCl2. Fractions containing the protein were pooled, concentrated as described above, and stored at −80° C.
The full length human COX-2 gene (accession number L15326) was amplified by PCR to generate an EcoRI-HindIII fragment containing an in-frame FLAG tag. This was subcloned into pFastBac 1 (Invitrogen). The COX2 FLAG plasmid was recombined into the baculovirus genome according to the BAC-to-BAC protocol described by Invitrogen. Transfection into Spodoptera frugiperda (Sf9) insect cells was performed using Cellfectin (Invitrogen), according to the manufacturer's protocol. […] Recombinant virus was added at a Multiplicity of Infection (MOI) of 5 and the culture was allowed to continue for 3 days. Cells were harvested using a continuous feed centrifuge run at 2500 g at a rate of approximately 2 L/min with cooling. The resultant cell slurry was re-centrifuged in pots (2500 g, 20 min, 4° C.) and the cell paste was stored at −80° C. […] The suspension was sonicated in 500 mL batches for 8×5 seconds at 10 u amplitude with the medium tip of an MSE probe sonicator and subsequently incubated at 4° C. for 90 min with gentle stirring. The lysate was centrifuged at 12000 rpm for 45 min at 4° C. in a Sorvall SLA1500 rotor. The supernatant (1400 mL) was added to 420 mL of 20 mM Tris-Cl pH 7.4, 150 mM NaCl, 0.1 mM EDTA to reduce the concentration of n-octyl-β-D-glucopyranoside to 1% w/v.
`O=C(N[C@H]1CC[C@H](C2(O)CC2)CC1)c1cnc2cc(OC(F)F)ccc2c1` [Example 18, 7-(Difluoromethoxy)-N-(trans-4-(1-hydroxycyclopropyl)cyclohexyl)quinoline-3-carboxamide] showed an IC50 of less than 10 nM. For `CC(O)(CO[C@H]1CC[C@H](NC(=O)c2cnc3cc(OC(F)F)ccc3c2)CC1)C(F)(F)F` (stereo partly drawn) [Example 19, 7-(Difluoromethoxy)-N-(trans-4-(3,3,3-trifluoro-2-hydroxy-2-methylpropoxy)cyclohexyl)quinoline-3-carboxamide], the IC50 was 10 to 79.4 nM. `NCCCOC[C@H]1CC[C@H](NC(=O)c2cnc3cc(OC(F)F)ccc3c2)CC1` [Example 23, N-(trans-4-((3-Aminopropoxy)methyl)cyclohexyl)-7-(difluoromethoxy)quinoline-3-carboxamide] showed an IC50 of 10 to 79.4 nM. In the case of `Cn1nnnc1N1CCC(NC(=O)c2cnc3cc(C4CC4)c(C#N)cc3c2)CC1` [Example 24, 6-Cyano-7-cyclopropyl-N-(1-(1-methyl-1H-tetrazol-5-yl)piperidin-4-yl)quinoline-3-carboxamide], the IC50 is reported as 10 to 79.4 nM. `N#Cc1cc2cc(C(=O)N[C@H]3CCNC3=O)cnc2cc1C1CC1` [Example 25, (S)-6-Cyano-7-cyclopropyl-N-(2-oxopyrrolidin-3-yl)quinoline-3-carboxamide hydrochloride] showed an IC50 of 10 to 79.4 nM. In the case of `N#Cc1cc2cc(C(=O)NC3CC(=O)Nc4ccccc43)cnc2cc1C1CC1` (centres unmarked) [Example 26, 6-Cyano-7-cyclopropyl-N-(2-oxo-1,2,3,4-tetrahydroquinolin-4-yl)quinoline-3-carboxamide], the IC50 is reported as less than 10 nM. Compound `Cn1nnnc1N1CCC(NC(=O)c2cnc3cc(Br)c(Cl)cc3c2)CC1` [Example 27, 7-Bromo-6-chloro-N-(1-(1-methyl-1H-tetrazol-5-yl)piperidin-4-yl)quinoline-3-carboxamide] has an IC50 of 10 to 79.4 nM. Work on `COc1cccc2cc(C(=O)Nc3nccs3)cnc12` [Example 28, 8-Methoxy-N-(thiazol-2-yl)quinoline-3-carboxamide] yielded an IC50 of 10 to 79.4 nM. `COc1cc2ncc(C(=O)NC3CCN(c4nnnn4C)CC3)cc2cc1C` [Example 29, 7-Methoxy-6-methyl-N-(1-(1-methyl-1H-tetrazol-5-yl)piperidin-4-yl)quinoline-3-carboxamide] gave an IC50 of 10 to 79.4 nM. With `COc1cc(F)c2cc(C(=O)NC3CCN(c4nnnn4C)CC3)cnc2c1` [Example 30, 5-Fluoro-7-methoxy-N-(1-(1-methyl-1H-tetrazol-5-yl)piperidin-4-yl)quinoline-3-carboxamide] the IC50 was 10 to 79.4 nM. `COc1c(Cl)ccc2cc(C(=O)NC3CCN(c4nnnn4C)CC3)cnc12` [Example 31, 7-Chloro-8-methoxy-N-(1-(1-methyl-1H-tetrazol-5-yl)piperidin-4-yl)quinoline-3-carboxamide] gave an IC50 of 100 to 1000 nM. `COc1cc2ncc(C(=O)NC3CCN(c4nnnn4C)CC3)cc2cc1Cl` [Example 32, 6-Chloro-7-methoxy-N-(1-(1-methyl-1H-tetrazol-5-yl)piperidin-4-yl)quinoline-3-carboxamide] showed an IC50 of 10 to 79.4 nM. `COc1ccc2cc(C(=O)NC3CCN(c4nnnn4C)CC3)cnc2c1OC` [Example 33, 7,8-Dimethoxy-N-(1-(1-methyl-1H-tetrazol-5-yl)piperidin-4-yl)quinoline-3-carboxamide] showed an IC50 of 10 to 79.4 nM. `Cn1nnnc1N1CCC(NC(=O)c2cnc3cc(C4CC4)c(Cl)cc3c2)CC1` [Example 34, 6-Chloro-7-cyclopropyl-N-(1-(1-methyl-1H-tetrazol-5-yl)piperidin-4-yl)quinoline-3-carboxamide] was tested, and the IC50 was less than 10 nM. Compound `O=C(N[C@H]1CCNC1=O)c1cnc2cc(C3CC3)c(Cl)cc2c1` [Example 35, (S)-6-Chloro-7-cyclopropyl-N-(2-oxopyrrolidin-3-yl)quinoline-3-carboxamide hydrochloride] has an IC50 of less than 10 nM. `O=C(N[C@H]1CCCNC1=O)c1cnc2cc(C3CC3)c(Cl)cc2c1` [Example 36, (S)-6-Chloro-7-cyclopropyl-N-(2-oxopiperidin-3-yl)quinoline-3-carboxamide hydrochloride] showed an IC50 of 10 to 79.4 nM. With `O=C1CC(NC(=O)c2cnc3cc(C4CC4)c(Cl)cc3c2)c2ccccc2N1` (centres unmarked) [Example 37, 6-Chloro-7-cyclopropyl-N-(2-oxo-1,2,3,4-tetrahydroquinolin-4-yl)quinoline-3-carboxamide] the IC50 was less than 10 nM. Work on `O=C(N[C@H]1CONC1=O)c1cnc2cc(C3CC3)c(Cl)cc2c1` [Example 38, (S)-6-Chloro-7-cyclopropyl-N-(3-oxoisoxazolidin-4-yl)quinoline-3-carboxamide] yielded an IC50 of less than 10 nM. With `CC(C)(O)[C@H]1CC[C@H](NC(=O)c2cnc3cc(C4CC4)c(Cl)cc3c2)CC1` [Example 39] the IC50 was less than 10 nM. `C[C@]1(O)C[C@@H](NC(=O)c2cnc3cc(C4CC4)c(Cl)cc3c2)C1` [Example 40, 6-Chloro-7-cyclopropyl-N-((1s,3s)-3-hydroxy-3-methylcyclobutyl)quinoline-3-carboxamide] was tested, and the IC50 was 10 to 79.4 nM. For `O=C(N[C@H]1CCNC1=O)c1cnc2cc(C3CC3)c(F)cc2c1` [Example 41, (S)-7-cyclopropyl-6-fluoro-N-(2-oxopyrrolidin-3-yl)quinoline-3-carboxamide hydrochloride], the IC50 was 10 to 79.4 nM. Compound `CC(C)(O)[C@H]1CC[C@H](NC(=O)c2cnc3cc(C4CC4)c(F)cc3c2)CC1` [Example 42, 7-Cyclopropyl-6-fluoro-N-(trans-4-(2-hydroxypropan-2-yl)cyclohexyl)quinoline-3-carboxamide] has an IC50 of less than 10 nM. `O=C(N[C@H]1CC[C@H](NCC(F)F)CC1)c1cnc2cc(C3CC3)c(F)cc2c1` [Example 43, 7-Cyclopropyl-N-(trans-4-((2,2-difluoroethyl)amino)cyclohexyl)-6-fluoroquinoline-3-carboxamide] gave an IC50 of less than 10 nM. Compound `Cn1nnnc1N1CCC(NC(=O)c2cnc3cc(C4CC4)ccc3c2)CC1` [Example 44, 7-Cyclopropyl-N-(1-(1-methyl-1H-tetrazol-5-yl)piperidin-4-yl)quinoline-3-carboxamide] has an IC50 of less than 10 nM. In the case of `O=C(N[C@H]1CCNC1=O)c1cnc2cc(C3CC3)ccc2c1` [Example 45, (S)-7-Cyclopropyl-N-(2-oxopyrrolidin-3-yl)quinoline-3-carboxamide hydrochloride], the IC50 is reported as 10 to 79.4 nM. `COc1cc2ncc(C(=O)NC3CCN(c4nnnn4C)CC3)cc2cc1F` [Example 46, 6-Fluoro-7-methoxy-N-(1-(1-methyl-1H-tetrazol-5-yl)piperidin-4-yl)quinoline-3-carboxamide] showed an IC50 of 100 to 1000 nM. `COc1ccc2cc(C(=O)Nc3nccs3)cnc2c1F` [Example 47, 8-Fluoro-7-methoxy-N-(thiazol-2-yl)quinoline-3-carboxamide hydrochloride] was tested, and the IC50 was 10 to 79.4 nM. Work on `O=C(N[C@H]1CC[C@H](NCC(F)F)CC1)c1cnc2cc(OC(F)F)c(F)cc2c1` [Example 49, N-(trans-4-((2,2-Difluoroethyl)amino)cyclohexyl)-7-(difluoromethoxy)-6-fluoroquinoline-3-carboxamide] yielded an IC50 of 10 to 79.4 nM. For `CC(C)CN1CC[C@H](NC(=O)c2cnc3cc(OC(F)F)c(F)cc3c2)C1=O` [Example 50, (S)-7-(Difluoromethoxy)-6-fluoro-N-(1-isobutyl-2-oxopyrrolidin-3-yl)quinoline-3-carboxamide], the IC50 was 10 to 79.4 nM.

Same assay, conditions: in at least one experimental run; read-out: H-PGDS pIC50 value (converted)
`N#Cc1cc2cc(C(=O)N[C@H]3CCNC3=O)cnc2cc1C1CC1` [Example 25, (S)-6-Cyano-7-cyclopropyl-N-(2-oxopyrrolidin-3-yl)quinoline-3-carboxamide hydrochloride] was tested, and the IC50 was 25.1 nM. In the case of `O=C(N[C@H]1CCCNC1=O)c1cnc2cc(C3CC3)c(Cl)cc2c1` [Example 36, (S)-6-Chloro-7-cyclopropyl-N-(2-oxopiperidin-3-yl)quinoline-3-carboxamide hydrochloride], the IC50 is reported as 15.8 nM. In the case of `COc1cc2ncc(C(=O)NC3CCN(c4nnnn4C)CC3)cc2cc1F` [Example 46, 6-Fluoro-7-methoxy-N-(1-(1-methyl-1H-tetrazol-5-yl)piperidin-4-yl)quinoline-3-carboxamide], the IC50 is reported as 126 nM.
